In data set [1] the target is T1, rat α1β2γ2 GABA(A) receptor (Rattus norvegicus, UniProt P18508+P62813+P63138).
T1 construct: expressed in transfected cells; host or cells: Xenopus laevis oocytes injected with cRNA (constructs a gift from Dr Erwin Sigel)
The data set is described as follows: Two-electrode voltage-clamp of GABA(A) receptor expressed in Xenopus laevis oocytes. In kind it is cell-based. The method, then:
Oocytes from X. laevis, injected with foreign cDNA of the receptor of choice, are a commonly used tool for studying the activity of plasma membrane receptors. […] Isolation of oocytes from the frogs, defolliculation, culturing of the oocytes and injection of cRNA were performed as described previously. Oocytes were injected with 46 nl of RNA solution, with RNA coding for α1, β2 and γ2 subunits at a ratio of 10∶10∶50 nM [30]. The injected oocytes were incubated in modified Barth's solution [90 mM NaCl, 3 mM KCl, 0.82 mM MgSO4, 0.41 mM CaCl2, 0.34 mM Ca(NO3)2, 100 U/ml penicillin, 100 µg/ml streptomycin and 100 µg/ml kanamycin, 5 mM HEPES pH 7.6] at 18°C for approximately 36 h before the measurements to ensure the expression of a functional receptor.
Electrophysiological experiments were performed by the two-electrode voltage-clamp method. Measurements were done in ND96 medium containing 96 mM NaCl, 2 mM KCl, 1 mM MgCl2, 1.8 mM CaCl2 and 5 mM HEPES, pH 7.5, at a holding potential of −80 mV. Currents were measured using a custom-made two-electrode voltage clamp amplifier in combination with an XY recorder (90% response time, 0.1 s). The intracellular electrodes were filled with 3 M KCl (resistance of 0.5–1.5 MΩ). […] The perfusion solution (6 ml/min) was applied through a glass capillary with an inner diameter of 1.35 mm. […] The modulatory compounds (IVM and MOX) were first dissolved in DMSO at 20 mM and then diluted in ND96 to the final concentration.
Concentration ranges used were: IVM: 0.5 nM–10 µM; MOX: 1 nM–5 µM.
A washout period of 5 min between each agonist application was introduced, allowing receptors to fully recover from desensitization. The perfusion system was cleaned, after application of MLs, between each experiment by washing with 10% DMSO in ND96 to avoid contamination. Three or four different batches of oocytes were used to collect data for each analysis.
All experiments were conducted at least in triplicate. Differences in ML tissue concentrations were analyzed by one-way analysis of variance (ANOVA) with a Tukey post-test and are expressed as mean ± standard deviation (S.D.). […] Half-maximal concentrations (EC50), slope factors (Hill coefficients, nH) and maximal potentiation values for ML-induced activation of current were obtained using the Hill equation. Statistical analysis was performed using unpaired t-tests with Welch's correction to allow for differences in variances (GraphPad Instat, San Diego, CA, USA). Differences were considered statistically significant when p<0.05.

In data set [2] the test system is Mdr1ab(−/−) mice. The data set is described as follows: Neurological symptoms after subcutaneous administration. In kind it is in vivo, mouse. Conditions: for Neurological signs: 0.46 µmol/kg SC. On the procedure:
(§1) For acute toxicity experiments, Mdr1ab(−/−) mice (2–8 per dose rate) were injected subcutaneously with drug solutions at dose rates ranging from 0.1–1.75 mg/kg bw (0.11–2.0 µmol/kg bw) for IVM and 0.2–8.2 mg/kg bw (0.31–12.9 µmol/kg bw) for MOX. […] Mice were euthanized when severe tremors or ataxia were noted.

Data set [3] relates to wild-type mice. The settings on record: cited from earlier work.
The test system of data set [4] is acetylcholine receptors. Further details: method as in PMID 17707779. The settings on record: cited from earlier work.
For data set [5] the following is noted: no reference given; cited from earlier work.
Data set [6] deals with purinergic (ATP) (cationic) receptors. The settings on record: cited from earlier work.
Data set [7] in a line: Acute toxicity (14-day survival, LD50) after subcutaneous administration. Conditions: mouse, in vivo, sc, Mdr1ab(−/−) mice, survival over 14 days, determined graphically. On the procedure:
as §1

The test system of data set [8] is P-gp-deficient dogs. Conditions: MDR1-deficient dogs, therapeutic dose 0.2 mg/kg; cited from earlier work.
The subject of data set [9] is Mdr1a-deficient mice. Further details: method as in PMID 7910522. The settings on record: Mdr1a-deficient mice mutated on only the abcb1a gene; cited from earlier work.
[10] abbreviates: potentiation of current evoked by 2 µM GABA (EC10).

Values joined by “and” are separate entries in the source; they are usually repeats but may differ in a detail not shown here. Identical values can stand only once. Like-named read-outs stand apart in the source and are kept apart here. Marks after values point to notes of the source that are not given here.

T1 sequence (P62813 28-455): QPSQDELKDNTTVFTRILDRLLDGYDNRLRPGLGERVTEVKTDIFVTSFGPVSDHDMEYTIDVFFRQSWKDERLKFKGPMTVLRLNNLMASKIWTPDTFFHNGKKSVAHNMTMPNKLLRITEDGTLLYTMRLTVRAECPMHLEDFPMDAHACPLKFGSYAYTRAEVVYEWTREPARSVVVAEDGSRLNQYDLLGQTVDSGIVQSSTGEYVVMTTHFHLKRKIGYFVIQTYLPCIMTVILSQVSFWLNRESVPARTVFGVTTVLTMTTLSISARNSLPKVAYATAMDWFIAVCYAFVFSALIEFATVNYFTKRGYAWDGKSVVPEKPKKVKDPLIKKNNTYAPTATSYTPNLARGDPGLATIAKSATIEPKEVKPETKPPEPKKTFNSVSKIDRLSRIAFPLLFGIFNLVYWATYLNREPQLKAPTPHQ
T1 sequence (P63138 25-474 limits assumed): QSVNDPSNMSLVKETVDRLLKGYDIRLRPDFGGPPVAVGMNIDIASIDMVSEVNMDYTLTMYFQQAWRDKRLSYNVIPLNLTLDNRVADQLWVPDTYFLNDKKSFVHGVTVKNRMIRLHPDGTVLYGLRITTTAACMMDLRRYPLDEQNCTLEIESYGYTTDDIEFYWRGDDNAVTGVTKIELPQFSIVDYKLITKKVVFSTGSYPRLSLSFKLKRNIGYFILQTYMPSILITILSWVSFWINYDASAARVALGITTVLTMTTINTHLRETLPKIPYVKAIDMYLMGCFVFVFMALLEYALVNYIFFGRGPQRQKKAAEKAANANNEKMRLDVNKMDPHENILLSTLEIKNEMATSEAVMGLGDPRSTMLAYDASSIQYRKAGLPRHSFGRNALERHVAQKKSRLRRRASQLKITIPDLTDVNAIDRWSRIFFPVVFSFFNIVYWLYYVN
T1 sequence (P18508 39-466): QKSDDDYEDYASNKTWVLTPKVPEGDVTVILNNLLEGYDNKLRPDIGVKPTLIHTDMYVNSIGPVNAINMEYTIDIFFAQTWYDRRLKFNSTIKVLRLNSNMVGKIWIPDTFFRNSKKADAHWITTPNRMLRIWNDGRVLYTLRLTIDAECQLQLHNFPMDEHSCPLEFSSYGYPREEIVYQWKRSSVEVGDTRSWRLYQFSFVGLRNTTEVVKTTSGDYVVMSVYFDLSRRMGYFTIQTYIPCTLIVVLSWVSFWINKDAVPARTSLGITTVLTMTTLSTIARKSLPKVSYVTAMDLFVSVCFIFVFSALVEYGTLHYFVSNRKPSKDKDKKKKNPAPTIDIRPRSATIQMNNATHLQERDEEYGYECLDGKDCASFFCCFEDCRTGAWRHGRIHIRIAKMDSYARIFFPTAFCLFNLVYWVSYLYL

For `NCCCC(=O)O` [GABA, γ-aminobutyric acid], in data set [1] (GABA alone, n = 12), the “EC10 (concentration producing 10% of maximal response)” value was 2.08 ± 1.18 µM; the Hill slope was 1.30±0.07 and 1.30±0.02.
As to `CCC(C)[C@H]1O[C@]2(CC[C@@H]1C)C[C@@H]1C[C@@H](C/C=C(\C)[C@@H](O[C@H]3C[C@H](OC)[C@@H](O[C@H]4C[C@H](OC)[C@@H](O)[C@H](C)O4)[C@H](C)O3)[C@@H](C)/C=C/C=C3\CO[C@@H]4[C@H](O)C(C)=CC(C(=O)O1)[C@]34O)O2` (some centres unmarked) [Ivermectin], the Behaviour of mice entry in data set [2] (0.11 µmol/kg SC) was “no changes in the behaviour of mice were observed”. Also, the Neurological symptoms observed entry in data set [2] (0.11 µmol/kg SC, 1 h post-treatment (ditto marks to 14 d)) is “Visually normal”; in data set [2] (0.40 µmol/kg SC, 1 h post-treatment (ditto marks to 5 h)) it was “Visually normal”; in data set [2] (0.40 µmol/kg SC, 6 h post-treatment) it was “Lethargy”; in data set [2] (0.40 µmol/kg SC, 7 h post-treatment, these mice euthanized), 2/5 Ataxia ^c/tremor ^d ^†; in data set [2] (0.40 µmol/kg SC, 12 h post-treatment), 3/5 Sleepiness; in [2] (0.40 µmol/kg SC, 1 d post-treatment (ditto marks to 14 d)), “Visually normal”. Also, the Neurological symptoms observed entry is listed as “Rapid breathing” in [2] (0.69 µmol/kg SC, 2 h post-treatment); “Ataxia ^c” in data set [2] (0.69 µmol/kg SC, 5 h post-treatment); “Lethargy ^†” in data set [2] (0.69 µmol/kg SC, 6 h post-treatment, mice euthanized). Further, the results for the Neurological signs result in data set [2] (6 h post-administration) and in data set [2] (just after administration) were “severe neurotoxic signs” and “hyperactivity”, respectively. For the same compound, in data set [2] (dose rates close to the respective LD50 (0.46 IVM, 2.3 MOX µmol/kg)), the “Start of neurotoxic signs (lethargy, tremors and/or ataxia)” value is 6 h. In addition, the LD50 in data set [3] is reported as 27–34 ^b µmol/kg; in data set [3] (oral administration, ref 20 (IVM), 21 (MOX)) it was “around 30 mg/kg”; in [9], 0.6–0.8 µmol/kg bw. Also, the “Concentration required to potentiate the receptors” value is given as 30 µM in [4] and 3 µM in data set [6]. Further, the 50% effective concentration (EC50) in [1] came to 0.0338 ± 0.0077 µM. Moreover, in data set [1] (co-application with 2 µM GABA), the “Maximum potentiation of the GABA(A) receptor by IVM compared with MOX” value is listed as approximately 2 fold. Also, the “Concentration to reach Emax” value in [1] (setting [10]) turned out to be 0.49 µM. Further, the Hill slope in [1] (setting [10]) is reported as 1.52±0.45; in data set [1] (potentiation of current evoked by 2 µM GABA (EC10), listed as IVM), 1.52. Further, the maximal effect (Emax) in data set [1] (read-out: Emax (maximum potentiation relative to GABA alone)) came out at 414 ± 66.1%. Also, in data set [5], the logP is listed as 4.8. For the same compound, in data set [7], the LD50 at 14 days is 0.4 mg/kg and 0.46 µmol/kg. For the same compound, in data set [8], the Signs of neurotoxicosis entry is recorded as “severe signs of neurotoxicosis”.

The Hill slope is a measure of the steepness of the concentration-response curve. As a reminder, the LD50 is the dose at which mortality reaches 50%. The term EC50 denotes the concentration that produces a half-maximal response. For orientation: Emax means the size of the effect at its maximum, as opposed to the concentration needed. The logP is a log measure of how a compound divides between an organic and an aqueous phase.

The values are drawn from paper PMC3486876 (PLoS Neglected Tropical Diseases, 2012).
